Results as given in the NIST ThermoML archive (doi:10.1016/j.tca.2018.03.018).
Numbers after ± are expanded uncertainties.

Key:
[1] = Crystal; DSC
[2] = Molar enthalpy of transition or fusion; conditions: Crystal; DSC

Triple point temperature [1]: 325.66 ± 1 K | Molar enthalpy of transition or fusion [2]: 12 ± 0.335 kcal/mol
Structure (SMILES): CCCCCCCCCCCCCCCCCC(=O)O [octadecanoic acid]
